Assay results as given in patent US20240343747A1, “Heteroaryl compounds as inhibitors of TYK2, composition and application thereof” (Accro Bioscience (HK) Limited, priority 2021, published 2024).

Legend:
[1] = Plasma protein binding test, dog; format: in vitro ADME
Protocol: (§1) • 1. Test compound and control compound were dissolved in dimethyl sulfoxide (DMSO) to achieve 10 mM stock solutions. DMSO working solutions were prepared at 400 μM. To prepare the loading matrix, compound working solutions (5 μL) were added in a 1:200 ratio to blank matrix (995 μL), and mixed thoroughly. • 2. To prepare the time zero (TO) samples to be used for recovery determination, 50 μL aliquots of loading matrix were transferred in triplicate to the sample collection plate. The samples were immediately matched with opposite blank buffer to obtain a final volume of 100 μL of 1:1 matrix/dialysis buffer (v/v) in each well. 500 μL of stop solution were added to these TO samples. They were then stored at 2-8° C. pending further processes along with other post-dialysis samples. • 3. To load the dialysis device, an aliquot of 150 μL of the loading matrix was transferred to the donor side of each dialysis well in triplicate, and 150 μL of the dialysis buffer was loaded to the receiver side of the well. The dialysis plate was placed in a humidified incubator at 37° C. with 5% CO2 on a shaking platform that rotated slowly (about 100 rpm) for 4 hours • 4. At the end of the dialysis, aliquots of 50 μL of samples were taken from both the buffer side and the matrix side of the dialysis device. These samples were transferred into new 96-well plates. Each sample was mixed with an equal volume of opposite blank matrix (buffer or matrix) to reach a final volume of 100 μL of 1:1 matrix/dialysis buffer (v/v) in each well. All samples were further processed by adding 500 μL of stop solution containing internal standards. The mixture was vortexed and centrifuged at 4000 rpm for about 20 minutes. An aliquot of 100 μL of supernatant of all the samples was then removed for LC-MS/MS analysis • 5. The single blank samples were prepared by transferring […] of blank matrix to a 96 well plate and adding 50 μL of blank PBS buffer to each well. The blank plasma must match the species of plasma used in the plasma side of the well. […]
(§2) The % Unbound and % Bound were calculated using the following equations: […]

[2] = Plasma protein binding test, human; format: in vitro ADME; conditions: for plasma protein binding (in words): conclusion from Table 7, all species tested; for fraction unbound at 4 h, 2 μM: human plasma
Protocol: • 1. Test compound and control compound were dissolved in dimethyl sulfoxide (DMSO) to achieve 10 mM stock solutions. DMSO working solutions were prepared at 400 μM. To prepare the loading matrix, compound working solutions (5 μL) were added in a 1:200 ratio to blank matrix (995 μL), and mixed thoroughly. • 2. To prepare the time zero (TO) samples to be used for recovery determination, 50 μL aliquots of loading matrix were transferred in triplicate to the sample collection plate. The samples were immediately matched with opposite blank buffer to obtain a final volume of 100 μL of 1:1 matrix/dialysis buffer (v/v) in each well. 500 μL of stop solution were added to these TO samples. They were then stored at 2-8° C. pending further processes along with other post-dialysis samples. • 3. To load the dialysis device, an aliquot of 150 μL of the loading matrix was transferred to the donor side of each dialysis well in triplicate, and 150 μL of the dialysis buffer was loaded to the receiver side of the well. The dialysis plate was placed in a humidified incubator at 37° C. with 5% CO2 on a shaking platform that rotated slowly (about 100 rpm) for 4 hours • 4. At the end of the dialysis, aliquots of 50 μL of samples were taken from both the buffer side and the matrix side of the dialysis device. These samples were transferred into new 96-well plates. Each sample was mixed with an equal volume of opposite blank matrix (buffer or matrix) to reach a final volume of 100 μL of 1:1 matrix/dialysis buffer (v/v) in each well. All samples were further processed by adding 500 μL of stop solution containing internal standards. The mixture was vortexed and centrifuged at 4000 rpm for about 20 minutes. An aliquot of 100 μL of supernatant of all the samples was then removed for LC-MS/MS analysis • 5. The single blank samples were prepared by transferring […] of blank matrix to a 96 well plate and adding 50 μL of blank PBS buffer to each well. The blank plasma must match the species of plasma used in the plasma side of the well. Then the matrix-matched samples were further processed by adding 500 μL of stop solution containing internal standards, following the same sample processing method as the dialysis samples.
The % Unbound and % Bound were calculated using the following equations:
% Unbound=100×[F]/[T]; % Bound=100−% Unbound
Where [F] is the analyte concentration or peak area ratio of analyte/internal standard on the buffer (receiver) side of the membrane, [T] is the analyte concentration or peak area ratio of analyte/internal standard on the matrix (donor) side of the membrane, and [T0] is the analyte concentration or the peak area ratio of analyte/internal standard in the loading matrix sample at time zero.

[3] = Pharmacokinetic evaluation in rats; format: in vivo, rat; conditions: for plasma exposure and bioavailability in rat (in words): conclusion from Table 10; for AUC / Vd / clearance / half-life / Cmax / Tmax: male, plasma; for AUC / Vd / clearance / half-life / Cmax / Tmax / F: rat
Protocol: The rat pharmacokinetic characteristics of compounds were tested by standard protocols. The candidate compounds were made into clear solution for single intravenous injection (i.v.) and suspension for oral administration (p.o.). Intravenous vehicle is 5% DMSO+10% Solutol+85% Saline. Of which adjusts pH to 3 for B37. While oral vehicle is 0.5% CMCNa for B2 and B22, 5% DMSO+10% Solutol+85% Saline, pH˜3 for B37, 5% DMSO+10% Solutol+85% Saline for B41. The experiment used 6 male rats and 3 rats for intravenous at a dose of 2 mg/kg. Plasma samples were collected at 0 h (before dosing) and 0.083 h, 0.25 h, 0.5 h, 1 h, 2 h, 4 h, 8 h, 24 h after dosing. 3 rats were orally administrated at a dose of 10 mg/kg. Plasma samples were collected at 0 h (before dosing) and 0.25 h, 0.5 h, 1 h, 2 h, 4 h, 6 h, 8 h, 24 h after dosing.
Blood samples were placed in tubes containing K2-EDTA and stored on ice until centrifuged. The blood samples were centrifuged at 6800 g for 6 minutes at 2-8° C. within 1 h after collected, and stored frozen at approximately −80° C.
The analytical results were confirmed using quality control samples for intra-assay variation. The accuracy of >66.7% of the quality control samples and 50% of all QC samples at each concentration level were between 80-120% of the known value(s).
Standard set of parameters including area under the curve (AUC(0-t) and AUC(0-∞)), elimination half-live (T1/2), maximum plasma concentration (Cmax), time to reach maximum plasma concentration (Tmax) were calculated using noncompartmental analysis modules in FDA certified pharmacokinetic program Phoenix WinNonlin 7.0 (Pharsight, USA) by the Study Director.

[4] = biological target: TYK2 JH2 (Homo sapiens (Human), UniProt P29597); experiment: Competitive binding assay (kinase-tagged phage, qPCR), TYK2 JH2
Protocol: For most assays, kinase-tagged T7 phage strains were prepared in an E. coli host derived from the BL21 strain. E. coli were grown to log-phase and infected with T7 phage and incubated with shaking at 32° C. until lysis. The lysates were centrifuged and filtered to remove cell debris. The remaining kinases were produced in HEK-293 cells and subsequently tagged with DNA for qPCR detection. Streptavidin coated magnetic beads were treated with biotinylated small molecule ligands for 30 minutes at room temperature to generate affinity resins for kinase assays. The liganded beads were blocked with excess biotin and washed with blocking buffer (SeaBlock (Pierce), 1% BSA, 0.05% Tween 20, 1 mM DTT) to remove unbound ligand and to reduce non-specific binding. […] Test compounds were prepared as 111X stocks in 100% DMSO. Dissociation constants (Kds) were determined using an 11-point 3-fold compound dilution series with three DMSO control points. All compounds for Kd measurements are distributed by acoustic transfer (non-contact dispensing) in 100% DMSO. The compounds were then diluted directly into the assays such that the final concentration of DMSO was 0.9%. All reactions performed in polypropylene 384-well plate. Each was a final volume of 0.02 ml. The assay plates were incubated at room temperature with shaking for 1 hour and the affinity beads were washed with wash buffer (1×PBS, 0.05% Tween 20). The beads were then re-suspended in elution buffer (1×PBS, 0.05% Tween 20, 0.5 μM nonbiotinylated affinity ligand) and incubated at room temperature with shaking for 30 minutes. The kinase concentration in the eluates was measured by qPCR.
An 11-point 3-fold serial dilution of each test compound was prepared in 100% DMSO at 100× final test concentration and subsequently diluted to 1× in the assay (final DMSO concentration=1%). Most Kds were determined using a compound top concentration=30,000 nM. If the initial Kd determined was <0.5 nM (the lowest concentration tested), the measurement was repeated with a serial dilution starting at a lower top concentration.
Binding constants (Kds) were calculated with a standard dose-response curve using the Hill equation: […]
The Hill Slope was set to −1.
Curves were fitted using a non-linear least square fit with the Levenberg-Marquardt algorithm.

[5] = Plasma protein binding test, mouse; format: in vitro ADME
Protocol: as §1, §2

TYK2 JH2, sequence (P29597 589-875): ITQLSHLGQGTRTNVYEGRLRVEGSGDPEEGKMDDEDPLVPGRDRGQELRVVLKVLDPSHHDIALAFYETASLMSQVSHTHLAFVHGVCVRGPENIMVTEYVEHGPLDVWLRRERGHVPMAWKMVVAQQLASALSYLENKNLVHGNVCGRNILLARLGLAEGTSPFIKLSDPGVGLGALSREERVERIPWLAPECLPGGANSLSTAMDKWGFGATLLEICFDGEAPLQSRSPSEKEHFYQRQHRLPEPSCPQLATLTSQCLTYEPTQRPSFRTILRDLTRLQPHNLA

fraction unbound at 4 h, 2 μM [1] | plasma protein binding (in words) [2] | fraction unbound at 4 h, 2 μM [2] | plasma exposure and bioavailability in rat (in words) [3] | AUC ([3]; iv, i.v. 2 mg/kg) [ng·h/mL] | Vd ([3]; iv, i.v. 2 mg/kg) [L/kg] | clearance ([3]; iv, i.v. 2 mg/kg) [mL/min/kg] | half-life ([3]; iv, i.v. 2 mg/kg) [h] | AUC ([3]; po, p.o. 10 mg/kg) [ng·h/mL] | Cmax ([3]; po, p.o. 10 mg/kg) [ng/mL] | Tmax ([3]; po, p.o. 10 mg/kg) [h] | F ([3]; p.o. 10 mg/kg) [%] | Kd [4] [nM] | fraction unbound at 4 h, 2 μM [5] | Structure (SMILES)
0.119 | moderate to high | 0.048 | good plasma exposure and bioavailability | 2430 | 1.5 | 13.8 | 1.3 | 5900 | 2020 | 0.67 | 49 | 0.043 | 0.067 | CCC(=O)c1cnc(NC(=O)C2CC2)cc1Nc1cccc(-c2cc(P(C)(C)=O)n(C)n2)c1OC [Compound B2, N-(4-((3-(5-(dimethylphosphoryl)-1-methyl-1H-pyrazol-3-yl)-2-methoxyphenyl)amino)-5-propionylpyridin-2-yl)cyclopropanecarboxamide]
0.156 | moderate to high | 0.051 |  | 2670 | 1.4 | 12.7 | 1.3 | 2280 | 694 | 1.83 | 17 | 0.063 | 0.03 | [2H]C([2H])([2H])n1nc(-c2cccc(Nc3cc(NC(=O)C4CC4)ncc3C(=O)CC)c2OC)cc1P(C)(C)=O [Compound B22]
 |  |  | good plasma exposure and bioavailability | 3090 | 0.9 | 10.9 | 0.96 | 9420 | 1890 | 2.05 | 61 | 0.044 |  | CCC(=O)c1cnc(NC(=O)C2CC2)cc1Nc1cccc(-c2cc(P(=O)(C3CC3)C3CC3)n(C)n2)c1OC [Compound B37, N-(4-((3-(5-(dicyclopropylphosphoryl)-1-methyl-1H-pyrazol-3-yl)-2-methoxyphenyl)amino)-5-propionylpyridin-2-yl)cyclopropanecarboxamide]
0.019 | moderate to high | 0.084 | good plasma exposure and bioavailability | 2880 | 1 | 11.6 | 1 | 6900 | 1800 | 2.83 | 48 |  | 0.018 | [2H]C([2H])([2H])NC(=O)c1nnc(NC(=O)C2CC2)cc1Nc1cccc(-c2cc(P(=O)(C3CC3)C3CC3)n(C)n2)c1OC [Compound B41, 6-(cyclopropanecarboxamido)-4-((3-(5-(dicyclopropylphosphoryl)-1-methyl-1H-pyrazol-3-yl)-2-methoxyphenyl)amino)-N-(methyl-d3)pyridazine-3-carboxamide]
